“Also recorded” adds a separate entry of the source.
System: BV-173 cells
Assay: Western blot analysis in BV-173 cells
Type: cell-based, human
Method: BV-173 cells (BCR-ABL positive leukemic cells) were used as control cells left (Ctl) or with 1 μM MARB1, 2 μM MARB2 or 2 mM VPA treated for 24 h. These concentrations were chosen to achieve equipotent effects on cells which was in preliminary tests (data not shown). Shown are acetylated tubulin-α, α-tubulin, acetylated histone H3, WT1, survivin and β-actin. The total amount of α-tubulin and β-actin were used as loading control. Mr, relative molecular weight in kilodaltons. The degradation of WT1 in patients treated with VPA cells bases on a loss of WT1 mRNA and the increased degradation of WT1 protein by induction of the E2 ubiquitin conjugase UbcH8.
Flow cytometric analysis of the induction of (A) apoptotic DNA fragmentation and (B) Cell cycle analysis of BV 173 cells. The cells were kept as control cells (Ctl), treated with 1 μM or 2 μM MARB1 MARB2 and 0.2 or 0.5 μM imatinib for 48 h. The data was received by two independent experiments. The individual compounds show only slight effects in the used concentrations; whereas their combination can effectively kill leukemic cells. (C) Western blot analysis on data from the BCR-ABL, acetylated tubulin and α-sliced PARP1; the total amount of tubulin-α serves as a loading control. BV-173 cells were treated for 24 h with 1 μM, or 2 μM MARB1 or MARB2.
Human leukemia cell lines BV 173 and K562 with BCR-ABL mutation (Leibniz Institute DSMZ—German Collection of Microorganisms and Cell Cultures, DSMZ Accession Nos: ACC-20 and ACC-10).
The assay is carried out as described in Buchwald et al. 2010 and Buchwald et al. 2013. Briefly, cells were collected and lysed in NET-N buffer (150 mM NaCl, 1 mM EDTA, 50 mM Tris-HCl (pH 7.8), 0.5% Nonidet P-40 (NP-40), 1 mM phenylmethylsulfonyl fluoride, 0.5 mg/ml leupeptin and 0.5 mg/ml pepstatin) followed by mild sonification on ice. Protein lysate ([…]) was boiled in Laemmli buffer and separated on SDS-polyacrylamide gel electrophoresis for western blotting with specific antibodies. All lysates were assessed by Bradford assay for protein concentrations.

[1] = BV-173, 1 μM MARB1, 2 μM MARB2, 24 h

CN1C(=O)C2CN(Cc3c2c2ccccc2n3Cc2ccc(C(=O)NO)cc2)C1=O (centres unmarked) [MARB1, N-Hydroxy-4-((4-methyl-3,5-dioxo-3,4,5,6-tetrahydro-2,6-methano[1,3]diazocino[5,6-b]indol-11(1H)-yl)methyl)benzamide]
acetylation of tubulin-α [1]: hyperacetylation of tubulin-α
expression of survivin [1]: reduction of the expression of survivin
acetylation of histone H3 (BV-173, 1 μM MARB1, 2 μM MARB2 or 2 mM VPA, 24 h): Neither MARB1, nor MARB2 cause these alterations
BCR-ABL expression on the protein level (BV-173, compound alone, 24 h): do not affect
BCR-ABL stabilization/degradation in combination with imatinib (BV-173, with imatinib, 24 h): significantly inhibit the unwanted stabilization of BCR-ABL; also recorded: significant degradation of BCR-ABL

Source: patent US10106540B2, “HDAC6 inhibitors and their uses” (Universität Regensburg, priority 2014, dated 2018)
